# Entries after “also recorded” stand apart in the source; their conditions may differ.
# Tests used:
# NIH3T3 = assay: Cell cycle specific toxicity in NIH3T3 cultures (clonal survival after brief drug treatment); assay type: cell-based
# Procedure: The examples were performed on the contact inhibited cell line, NIH3T3. […] They must be cultured so as to never reach confluence; since, like normal cells, they stop growing when becoming confluent on the culture plate. Thus, they are plated at 60,000 to 150,000 cells per 35 mm plate, and transferred to a new plate every 2-3 days. The cells must also be limited in passage number to ensure their growth rate is rapid. The definition of low passage cells will vary from one lab to another, and the actual cell cycle length of these cells may vary, but it is critical that from one experiment to another the length of the cell cycle remains constant.
# Constant killing over a broad concentration range: The drug to be tested is diluted across a broad concentration range, and placed on separate actively proliferating NIH3T3 cultures for two hours. […] The plates are then fixed, stained with crystal violet, and the number of colonies counted and compared to a mock treated culture. […] Cloning of the cells following drug treatment allows a quantitative determination of the number of surviving cells.
# Serum stimulated growth: NIH3T3 cells stop growing and enter quiescence when serum is reduced in the medium to 0.3%, so long as they are at a sufficient density on the plate. […] The drug to be analyzed is added for 3 hours at various times following serum addition, and then washed off. […]
# [1] = Procedure: Extensive studies were conducted to determine the optimal spacing between injections for C57Bl/6 mice, as differences between mouse strains might exist. […] After the 9 injections spaced apart by these times were complete, the animals were weighed over the next 10 days to determine their overall health. […]
# Lewis lung carcinoma = Lewis lung carcinoma tumor growth in C57Bl/6 mice; assay type: in vivo, mouse; details: for inhibition of Lewis lung carcinoma tumor growth: Cell Cycle Therapy, IP injections every 10 hours 40 min with rest periods
# Procedure: The Lewis Lung Carcinoma model is a commonly used tumor model for assessment of general anti-tumor activity. The cells can be grown in culture and then introduced underneath the skin on the back of syngeneic […] mice. When 1-2 million cells are introduced, tumors begin to form within 6-10 days. This is an extremely aggressive tumor, with doubling times of 3 days or less. […] In this study 2 million cells were injected underneath the skin on the mid back of the mice. The tumor was measured with calipers to determine its size. To confirm size measurements, the tumor was excised in total and weighed at the end of the experiment. All anti-tumor drug injections were intraperitoneal (IP). Mice in the range of 8-16 weeks of age were utilized, but within a given experiment, mice within the same age range were generally used for comparison. All studies were conducted under standard guidelines, and conformed to the protocol approved the Case Western Reserve and the Northeast Ohio Medical University IACUC. Weight loss was measured to determine animal health, with loss of over 20% an indication for experimental termination. Similarly, tumors were not allowed to grow beyond 15% of body weight.
# The ability of a treatment regimen to block tumor growth was determined with injections of topotecan, either alone or in combination with EDU. […] In this case, the increase of tumor size was measured. […] In general, EDU injections of 0.2 ml of 9 mg/ml drug (in phosphate buffered saline) were performed. These injections involved intermittent rest periods, generally 1-2 rest periods between 4-5 EDU injections. To increase the effectiveness of EDU injections, two such injections were at times performed within a 20 min period every 10 hours 40 min.
# When higher volumes were injected (0.23 ml) the rest times were increased. […] With 0.2 ml injections of topotecan ([…]), three injections were often followed by 4-5 rest periods (FIGS. 12 and 13A-C).
# EDU was always injected at 9 mg/ml (0.2 ml per injection). 1-3 such injections were followed immediately, or after 1-5 rest periods, by 1-4 injections of topotecan (0.18 ml, 0.2 mg/ml).
# The experiment involved 24 C57Bl/6 mice, each of which received injections of 2 million Lewis lung carcinoma cells under the skin on their backs. Three days later these animals were randomly divided into three groups. The first group received three injections of topotecan separated by the length of the cell cycle (10 hours 40 min). The three-injection set was then followed by a long rest period precisely equal to 5 cell cycle lengths; and the process was repeated (FIG. 14C). For comparison, another set of mice received a single injection at the same time each day. […] All topotecan injections were identical (0.2 ml of 0.18 mg/ml topotecan). As a control, 8 mice received 0.2 ml injections of phosphate buffered saline (PBS) at the same time as the cell cycle group. […]
# mouse gut crypt cells = assay: Cell cycle synchrony of gut crypt cells after repeated injections (EDU/BRDU incorporation, cyclin D1 staining); details: for ability to induce cell cycle synchrony in the mouse gut: EDU: high concentrations; for cell cycle synchrony of gut cells: four 10-hour injections separated by 40 hours without injection, repeated four times
# Procedure: All experiments were performed according to separate protocols approved by IACUC committees at the following institutions: the Northeast Ohio Medical University, and Case Western Reserve University. Studies of cell cycle length were approved by the IACUC of the Cleveland State University. Recall that the proliferating cells of the small intestine are located near the basement membrane in regions termed the crypt. Cells in this region are the only cells that proliferate in the gut, with the exception of rare proliferation of support cells in the matrix of the villi. Epithelial cells in the crypt region are essentially all proliferating all the time. Consequently, they are actively labeled by a pulse of EDU to label cells in S phase. Cells not labeled with EDU are in G2-G1 phases, and are labeled with cyclin D1 (FIG. 6).
# Finally, the tissue was analyzed a full 10 hours following the final topotecan injection.
# As a control to the above studies, the tissues described above were stained for the expression of cyclin D1. […] Thus, upon entry into S phase the level of cyclin D1 is always reduced to near zero. It returns to high levels of expression upon entry into G2 phase, but only in cells that are actively proliferating. Therefore, an actively proliferating cell would incorporate EDU if it were in S phase, and it would express cyclin D1 if it were in any other cell cycle phase. If all the cells of a tissue either incorporate EDU or express high cyclin D1 levels, all the cells of the tissue are actively proliferating. […] Further analysis was performed at 2 hour intervals from 0 hours to 10 hours following the final topotecan injection.
# Separate animals received injections of 0.20 ml of topotecan at 0.33 mg/ml, 0.20 mg/ml, or 0.12 ml of 0.20 mg/ml topotecan. Each animal was given four 10-hour injections of a given concentration, separated by 40 hours without injection; repeated four times. At 5 hours following the final topotecan injection, BRDU was injected into the animals to identify cells in S phase between the timed topotecan injection. Animals injected with BRDU were then injected again 5 hours later with EDU (10 hours after the final topotecan injection), to identify cells in S phase at the time the next successive topotecan injection would have taken place. 50 min following the EDU injection tissues were collected and analyzed.
# [2] = remark: listed apart in the source
# Procedure: Analyses began with approximately 10% of the LD50 concentration. It was then escalated until overall toxicity to the animals was observed. The final concentration of topotecan injected was 0.33 mg/ml-0.2 mg/ml; 0.05-0.27 ml per injection (depending on the mouse strain and weight of the mouse). Following determination of general topotecan toxicity following multiple injections, it was necessary to determine if, as predicted, injections spaced apart by the length of the cell cycle would be less harmful to the animals.
# […] […] […] Thus, 9 injections at 8 hours, or 9 injections at 12 hours, 14 hours, 16 hours or 20 hours were performed, and the effect of these upon the animals determined. The 8 hour time was selected to definitely be shorter than the cell cycle, and 20 hours to be longer than the cell cycle, so that negative controls would be built into the protocol.
# DNA synthesis = assay: Rate of DNA synthesis after topotecan (observation of the inventor)
# Text: Topotecan treatments would be removed and followed at various times thereafter with an BRDU treatment.
# [3] = test system: Lewis lung carcinoma tumors; assay: Cell cycle synchrony of Lewis lung carcinoma tumor cells (EDU labeling); assay type: in vivo, mouse; details: 9 injections separated by 10 hours, tumor-bearing C57Black mice
# Procedure: All studies of tumor killing were performed exactly as described above for studies of cell cycle synchrony. Thus, 9 injections of topotecan were separated from one another by 10 hours in C57Black mice carrying a tumor of approximately 0.5 gm. EDU was injected into three different topotecan treated animals at 1 hour, 5 hour or 10 hours as a marker for DNA synthesis. A control tumor-bearing mouse received mock injections and was injected with EDU 5 hours after the final injection. […] together with normal gut tissue was collected and analyzed.
# [4] = Removal of thymidine analogues from circulation (S phase labelling window after injection); details: mouse, in vivo
# Procedure: These two molecules become stably incorporated into DNA during DNA replication (S phase). When either is injected into mice, it labels at high levels only those tissue cells actively replicating DNA (in S phase) at that time. Because these drugs are both rapidly removed from circulation, only cells actively replicating DNA within 1 hour of injection are labelled. If the second drug is introduced into the same animal at a later time, thereafter, it too will label only those cells in S phase at the time of the second injection. The tissues are then collected and stained for BRDU and EDU with separate fluorescence tags. The intensity of each marker is then determined by fluorescent image analysis. Fortunately, it is the characteristic of dividing cells that these two labels are incorporated most efficiently into nuclei of cells near the middle of S phase. When the two injections are separated by the length of the cell cycle, therefore, both markers will be stained at maximal levels in the same cell. The cell cycle characteristics of a tissue can then be determined by comparing results following injections separated by increasing lengths of time.
# [5] = injections every 24 hours for up to 20 days
smiles,measurement,setting,value
COc1cc([C@@H]2c3cc4c(cc3[C@@H](O[C@@H]3O[C@@H]5CO[C@@H](C)O[C@H]5[C@H](O)[C@H]3O)[C@H]3COC(=O)[C@H]23)OCO4)cc(OC)c1O [Etoposide],width of concentration range selectively toxic for S phase cells,NIH3T3,10 fold
"C#Cc1cn([C@H]2C[C@H](O)[C@@H](CO)O2)c(=O)[nH]c1=O [EDU, 5-Ethynyl-2′-deoxyuridine]",toxicity to animals,[1]; EDU injections,not highly toxic to animals
same,inhibition of Lewis lung carcinoma tumor growth,Lewis lung carcinoma,reduction in tumor growth; also recorded: highly efficient in blocking tumor growth
same,ability to induce cell cycle synchrony in the mouse gut,mouse gut crypt cells,shown to induce cell cycle synchrony
N.N.[Cl][Pt][Cl] [cisplatin],delay of tumor formation,Lewis lung carcinoma; daily injections,less than 3 days
same,cell cycle synchrony of injected animals' cells,"mouse gut crypt cells; repeated injections, any time between injections",at no time were the cisplatin injected cells synchronous
CC[C@@]1(O)C(=O)OCc2c1cc1n(c2=O)Cc2cc3c(CN(C)C)c(O)ccc3nc2-1 [topotecan],injection spacing best tolerated,"[1]; 9 injections, spacings 9 h 30 min to 11 h 20 min, weight over next 10 days, C57Bl/6 mice",10 hours 40 minutes
same,"percent weight loss, injections separated by cell cycle length compared to daily injections","[1]; mouse, in vivo",dramatically reduced
same,toxicity on continued injections,"[1]; mouse, in vivo",without developing significant toxicity
same,total amount of drug tolerated by the animals,[2]; 4 injections every 10 hours separated by 40 hours without injection,increased
same,ability of animals to survive repeated injections,"[2]; 9 injections at 8, 12, 14, 16 or 20 hours between injections",had to be euthanized
same,effect on rate of DNA synthesis,DNA synthesis,dramatically reduces the rate of DNA synthesis
same,"inhibition of tumor appearance, longer than in untreated animals",Lewis lung carcinoma; Cell Cycle Therapy with injections every 10 hours 40 minutes and rest periods,7 to 12 days
same,inhibition of Lewis lung carcinoma tumor growth,Lewis lung carcinoma,dramatically inhibited; also recorded: highly efficient in blocking tumor growth
same,tumor growth compared to the control group,"Lewis lung carcinoma; FIG. 14B, both topotecan treatments (Cell Cycle and Daily)",dramatic decreases in tumor growth
same,reduction of tumor size,"Lewis lung carcinoma; Lewis lung carcinoma, any treatment protocol tested",never been found in these studies to reduce tumor size
same,average tumor size relative to PBS treated animals,"Lewis lung carcinoma; either protocol (Cell Cycle or daily), 9.5 days",¼
same,tumor killing,Lewis lung carcinoma; [5],tumor killing was enhanced
same,cell cycle synchrony of gut epithelial cells,mouse gut crypt cells; 9 injections every 10 hours,complete cell cycle synchrony
same,cell cycle phase / EDU incorporation of crypt cells,"mouse gut crypt cells; 9 injections every 10 hours, 4 to 8 hours following the final injection",in S phase; also recorded: high levels of EDU incorporation
same,cell cycle phase / EDU incorporation of crypt cells,"mouse gut crypt cells; 9 injections every 10 hours, 2 hours and 10 hours following the final injection",low levels of EDU incorporation; also recorded: not synthesizing DNA
same,cyclin D1 expression in crypt cells,"mouse gut crypt cells; 9 injections every 10 hours, 5 hours after the final injection",greatly reduced proportion of the cells
same,gut cells in S phase (EDU incorporation),"mouse gut crypt cells; 9 injections every 10 hours, 5 hours following the final injection",essentially all the cells were in S phase; also recorded: efficiently labeled with EDU
same,gut cells in S phase (EDU incorporation),"mouse gut crypt cells; 9 injections every 10 hours, 10 hours following the final injection",none of the cells were in S phase; also recorded: very little EDU labeling
same,cyclin D1 expression in crypt cells,"mouse gut crypt cells; 9 injections every 10 hours, immediately after or 10 hours following the final injection",expressed at high levels
same,gut cells in S phase (EDU incorporation),"mouse gut crypt cells; 9 injections every 10 hours, immediately following the final injection",no cells were in S phase
same,"gut morphology, EDU incorporation and synchrony of crypt cells",mouse gut crypt cells; 9 injections separated by 9 hours,unhealthy gut morphology and few gut cells able to incorporate EDU; also recorded: no evidence of cell cycle synchrony
same,cell cycle synchrony of normal gut cells in tumor-bearing animals,"mouse gut crypt cells; 9 injections separated by 10 hours, C57Black mice with Lewis lung carcinoma",induced cell cycle synchrony; also recorded: have been synchronized
same,synchronization of gut tissues,mouse gut crypt cells; 9 injections separated by times other than every 10 hours,In no case were the tissues synchronized
same,ability to induce cell cycle synchrony in the mouse gut,mouse gut crypt cells,shown to induce cell cycle synchrony
same,cell cycle synchrony of gut cells,mouse gut crypt cells; 0.20 ml of 0.33 mg/ml or 0.20 mg/ml,almost complete
same,cell cycle synchrony of gut cells,mouse gut crypt cells; injected concentration 0.12 mg/ml,very little if any synchrony
same,cell cycle synchrony of the gut,mouse gut crypt cells; [5],cell cycle synchrony of the gut was observed
same,crypt cell division interval,mouse gut crypt cells; [5],12 h
same,toxicity to gut tissue,"mouse gut crypt cells; mouse, in vivo",Even greater toxicity
same,"cell cycle synchrony of tumor cells (EDU labeling at 1, 5, 10 hours)",[3],had not been synchronized
"O=c1[nH]c(=O)n([C@H]2C[C@H](O)[C@@H](CO)O2)cc1Br [BRDU, Bromodeoxyuridine]",time after injection within which replicating cells are labelled (rapid removal from circulation),[4],≤ 1 h

# Reference: patent US20240335433A1, “CELL CYCLE SYNCHRONIZATION PROCESS” (priority 2023, published 2024)
